Measurements from the supplement of paper PMC5579334.
± gives the standard deviation of the averaged measurements.

Assays:
HS-PSS [1] = experiment: drug sensitivity score (DSS, CellTiter-Glo viability, 72 h) (DSS (dimensionless)); higher = more sensitive; extreme values may be limits of the assay
Procedure, shortened: (§1)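 After seeding 750–1000 cells per well of MPNST cell lines or primary human Schwann cells into 384-well plates preprinted with each compound at five concentrations in 10-fold steps, plates were kept 72 h at 37 °C, 5% CO2. Viability was read as CellTiter-Glo ATP luminescence relative to vehicle and positive-control wells, with duplicates averaged where present. The data were fitted with four-parameter logistic models. Drug sensitivity score and relative IC50, censored at the top concentration, derive from the fits, and percent inhibition refers to the top concentration.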

HS-Sch-2 [2] = experiment: as above
Procedure, shortened: as §1

[3] = test system: HSC1 (primary human Schwann cells); experiment: as above
Procedure, shortened: as §1

[4] = test system: HSC2 (primary human Schwann cells); experiment: as above
Procedure, shortened: as §1

S1507-2 [5] = experiment: as above
Procedure, shortened: as §1

S462 [6] = experiment: as above
Procedure, shortened: as §1

ST8814 [7] = experiment: as above
Procedure, shortened: as §1

STS26T [8] = experiment: as above
Procedure, shortened: as §1

YST-1 [9] = experiment: as above
Procedure, shortened: as §1

HS-PSS [10] = experiment: drug sensitivity score (DSS, CellTox-Green cytotoxicity, 72 h) (DSS (dimensionless)); higher = more cytotoxic; extreme values may be limits of the assay
Procedure, shortened: (§2)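 For 72 h at 37 °C, MPNST cell lines and primary human Schwann cells were exposed in 384-well plates to five 10-fold compound dilutions. CellTox-Green, added before seeding at a final 1:1000 dilution, gave fluorescence from DNA released by disrupted cells. Signals were scaled to vehicle and positive-control wells, cultures failing plate quality control were left out, and four-parameter logistic fits were applied. Relative IC50 and drug sensitivity score were derived from the fits, with IC50 censored at the top concentration.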

[11] = test system: HSC1 (primary human Schwann cells); experiment: as above
Procedure, shortened: as §2

[12] = test system: HSC2 (primary human Schwann cells); experiment: as above
Procedure, shortened: as §2

S1507-2 [13] = experiment: as above
Procedure, shortened: as §2

ST8814 [14] = experiment: as above
Procedure, shortened: as §2

STS26T [15] = experiment: as above
Procedure, shortened: as §2

HS-PSS [16] = experiment: % inhibition of CellTiter-Glo viability at highest tested concentration (72 h), relative to DMSO and benzethonium chloride controls; higher = more inhibition
Procedure, shortened: as §1

HS-Sch-2 [17] = experiment: as above
Procedure, shortened: as §1

[18] = test system: HSC1 (primary human Schwann cells); experiment: as above
Procedure, shortened: as §1

[19] = test system: HSC2 (primary human Schwann cells); experiment: as above
Procedure, shortened: as §1

S1507-2 [20] = experiment: as above
Procedure, shortened: as §1

S462 [21] = experiment: as above
Procedure, shortened: as §1

ST8814 [22] = experiment: as above
Procedure, shortened: as §1

STS26T [23] = experiment: as above
Procedure, shortened: as §1

YST-1 [24] = experiment: as above
Procedure, shortened: as §1

CC/C(=C(\c1ccccc1)c1ccc(OCCN(C)C)cc1)c1ccccc1 [Tamoxifen] (max concentration tested 10000 nM)
drug sensitivity score (HS-PSS [1]): 2.37
drug sensitivity score (HS-Sch-2 [2]): 4.43
drug sensitivity score [3]: 0.133
drug sensitivity score [4]: 2.59
drug sensitivity score (S1507-2 [5]): 1.29 ± 0.79
drug sensitivity score (S462 [6]): 0.757 ± 0.86
drug sensitivity score (ST8814 [7]): 3.39
drug sensitivity score (STS26T [8]): 0.653
drug sensitivity score (YST-1 [9]): 1.24
drug sensitivity score (HS-PSS [10]): 0
drug sensitivity score [11]: 0
drug sensitivity score [12]: 0
drug sensitivity score (S1507-2 [13]): 3.75 ± 4.3
drug sensitivity score (ST8814 [14]): 6.84
drug sensitivity score (STS26T [15]): 0.396
% inhibition (HS-PSS [16]): 55.4%
% inhibition (HS-Sch-2 [17]): 61.6%
% inhibition [18]: 14.8%
% inhibition [19]: 52.1%
% inhibition (S1507-2 [20]): 35.2 ± 12%
% inhibition (S462 [21]): 24.9 ± 13%
% inhibition (ST8814 [22]): 65.2%
% inhibition (STS26T [23]): 22%
% inhibition (YST-1 [24]): 29.6%

COc1cc2c(N3CCN(C(=O)Nc4ccc(OC(C)C)cc4)CC3)ncnc2cc1OCCCN1CCCCC1 [Tandutinib] (max concentration tested 1000 nM)
drug sensitivity score (HS-PSS [1]): 0
drug sensitivity score (HS-Sch-2 [2]): 0
drug sensitivity score [3]: 0
drug sensitivity score [4]: 0
drug sensitivity score (S1507-2 [5]): 0.0556 ± 0.079
drug sensitivity score (S462 [6]): 0
drug sensitivity score (ST8814 [7]): 0
drug sensitivity score (STS26T [8]): 0
drug sensitivity score (YST-1 [9]): 0
drug sensitivity score (HS-PSS [10]): 0
drug sensitivity score [11]: 0
drug sensitivity score [12]: 0
drug sensitivity score (S1507-2 [13]): 0
drug sensitivity score (ST8814 [14]): 0
drug sensitivity score (STS26T [15]): 0
% inhibition (HS-PSS [16]): 7.75%
% inhibition (HS-Sch-2 [17]): -3.01%
% inhibition [18]: 2.98%
% inhibition [19]: -9.62%
% inhibition (S1507-2 [20]): 9.56 ± 1.9%
% inhibition (S462 [21]): 0.414 ± 5.6%
% inhibition (ST8814 [22]): 8.58%
% inhibition (STS26T [23]): 6.33%
% inhibition (YST-1 [24]): -3.87%

C=CCNC1=C2C[C@@H](C)C[C@H](OC)[C@H](O)[C@@H](C)/C=C(\C)[C@H](OC(N)=O)[C@@H](OC)/C=C\C=C(/C)C(=O)NC(=CC1=O)C2=O [Tanespimycin] (max concentration tested 10000 nM)
drug sensitivity score (HS-PSS [1]): 19
drug sensitivity score (HS-Sch-2 [2]): 22.4
drug sensitivity score [3]: 15.9
drug sensitivity score [4]: 16.7
drug sensitivity score (S1507-2 [5]): 20.8 ± 0.74
drug sensitivity score (S462 [6]): 17.9 ± 1.3
drug sensitivity score (ST8814 [7]): 21
drug sensitivity score (STS26T [8]): 22.2
drug sensitivity score (YST-1 [9]): 22.6
drug sensitivity score (HS-PSS [10]): 5.08
drug sensitivity score [11]: 17.9
drug sensitivity score [12]: 19.1
drug sensitivity score (S1507-2 [13]): 14.6 ± 1.2
drug sensitivity score (ST8814 [14]): 7.63
drug sensitivity score (STS26T [15]): 14
% inhibition (HS-PSS [16]): 89.1%
% inhibition (HS-Sch-2 [17]): 100%
% inhibition [18]: 96.8%
% inhibition [19]: 98.2%
% inhibition (S1507-2 [20]): 98 ± 0.1%
% inhibition (S462 [21]): 99.25 ± 0.39%
% inhibition (ST8814 [22]): 96.5%
% inhibition (STS26T [23]): 96.1%
% inhibition (YST-1 [24]): 75.3%

C[C@@H](C(=O)O)c1ccc(-c2ccccc2)c(F)c1 [Tarenflurbil] (max concentration tested 10000 nM)
drug sensitivity score (HS-PSS [1]): 0
drug sensitivity score (HS-Sch-2 [2]): 0
drug sensitivity score [3]: 0
drug sensitivity score [4]: 0
drug sensitivity score (S1507-2 [5]): 0
drug sensitivity score (S462 [6]): 0
drug sensitivity score (ST8814 [7]): 0
drug sensitivity score (STS26T [8]): 0
drug sensitivity score (YST-1 [9]): 0
drug sensitivity score (HS-PSS [10]): 0
drug sensitivity score [11]: 0
drug sensitivity score [12]: 0
drug sensitivity score (S1507-2 [13]): 0.283 ± 0.4
drug sensitivity score (ST8814 [14]): 0
drug sensitivity score (STS26T [15]): 0
% inhibition (HS-PSS [16]): -1.84%
% inhibition (HS-Sch-2 [17]): -4.22%
% inhibition [18]: 1.66%
% inhibition [19]: -6.06%
% inhibition (S1507-2 [20]): -1.93 ± 0.15%
% inhibition (S462 [21]): -5.38 ± 11%
% inhibition (ST8814 [22]): -0.223%
% inhibition (STS26T [23]): -0.273%
% inhibition (YST-1 [24]): -2.65%

CO[C@H]1C[C@@H]2CC[C@@H](C)[C@@](O)(O2)C(=O)C(=O)N2CCCC[C@H]2C(=O)O[C@H]([C@H](C)C[C@@H]2CC[C@@H](OC(=O)C(C)(CO)CO)[C@H](OC)C2)CC(=O)[C@H](C)/C=C(\C)[C@@H](O)[C@@H](OC)C(=O)[C@H](C)C[C@H](C)/C=C/C=C/C=C/1C [Temsirolimus] (max concentration tested 100 nM)
drug sensitivity score (HS-PSS [1]): 7.73
drug sensitivity score (HS-Sch-2 [2]): 5.67
drug sensitivity score [3]: 17.5
drug sensitivity score [4]: 16.5
drug sensitivity score (S1507-2 [5]): 7.14 ± 2.6
drug sensitivity score (S462 [6]): 6.03 ± 0.88
drug sensitivity score (ST8814 [7]): 6.83
drug sensitivity score (STS26T [8]): 14.4
drug sensitivity score (YST-1 [9]): 9.18
drug sensitivity score (HS-PSS [10]): 0
drug sensitivity score [11]: 0
drug sensitivity score [12]: 0
drug sensitivity score (S1507-2 [13]): 0.915 ± 1.3
drug sensitivity score (ST8814 [14]): 0
drug sensitivity score (STS26T [15]): 0
% inhibition (HS-PSS [16]): 30.8%
% inhibition (HS-Sch-2 [17]): 29.2%
% inhibition [18]: 47%
% inhibition [19]: 51.2%
% inhibition (S1507-2 [20]): 28.4 ± 1.3%
% inhibition (S462 [21]): 31.8 ± 11%
% inhibition (ST8814 [22]): 23.2%
% inhibition (STS26T [23]): 47.2%
% inhibition (YST-1 [24]): 46.1%

COc1cc([C@@H]2c3cc4c(cc3[C@@H](O[C@@H]3O[C@@H]5CO[C@@H](c6cccs6)O[C@H]5[C@H](O)[C@H]3O)[C@H]3COC(=O)[C@H]23)OCO4)cc(OC)c1O [Teniposide] (max concentration tested 10000 nM)
drug sensitivity score (HS-PSS [1]): 6.82
drug sensitivity score (HS-Sch-2 [2]): 14
drug sensitivity score [3]: 22.2
drug sensitivity score [4]: 22.8
drug sensitivity score (S1507-2 [5]): 15.6 ± 3.6
drug sensitivity score (S462 [6]): 23.7 ± 0.38
drug sensitivity score (ST8814 [7]): 17.7
drug sensitivity score (STS26T [8]): 17.5
drug sensitivity score (YST-1 [9]): 22.9
drug sensitivity score (HS-PSS [10]): 1.46
drug sensitivity score [11]: 11
drug sensitivity score [12]: 9.8
drug sensitivity score (S1507-2 [13]): 8.49 ± 4.7
drug sensitivity score (ST8814 [14]): 14.7
drug sensitivity score (STS26T [15]): 11
% inhibition (HS-PSS [16]): 68.2%
% inhibition (HS-Sch-2 [17]): 94.8%
% inhibition [18]: 92.8%
% inhibition [19]: 100%
% inhibition (S1507-2 [20]): 92.44 ± 0.6%
% inhibition (S462 [21]): 107.1 ± 0.24%
% inhibition (ST8814 [22]): 87.2%
% inhibition (STS26T [23]): 93.7%
% inhibition (YST-1 [24]): 88.2%
